Laboratory results taken from article PMC11345841, “Exploring 2-Sulfonylpyrimidine Warheads as Acrylamide Surrogates for Targeted Covalent Inhibition: A BTK Story” (Journal of Medicinal Chemistry, 2024).
Read-outs that look alike come from different tables or passages of the source.

How the values were obtained:
Assay in all cases: KINOMEscan ScanTK
Type in all cases: binding
[1] = target: T1, ABL1(Y253F)-phosphorylated (Homo sapiens, UniProt P00519, Y253F)
T1 construct: purchased Eurofins DiscoverX KINOMEscan (scanTK)

[2] = target: T2, EGFR(L747-S752del, P753S) (Homo sapiens, UniProt P00533, DEL747-752/P753S)
T2 construct: purchased Eurofins DiscoverX KINOMEscan (scanTK)

EPHA8 = target: T3, EPHA8 (Homo sapiens, UniProt P29322)
T3 construct: purchased Eurofins DiscoverX KINOMEscan (scanTK)
T3 sequence (P29322 28-1005): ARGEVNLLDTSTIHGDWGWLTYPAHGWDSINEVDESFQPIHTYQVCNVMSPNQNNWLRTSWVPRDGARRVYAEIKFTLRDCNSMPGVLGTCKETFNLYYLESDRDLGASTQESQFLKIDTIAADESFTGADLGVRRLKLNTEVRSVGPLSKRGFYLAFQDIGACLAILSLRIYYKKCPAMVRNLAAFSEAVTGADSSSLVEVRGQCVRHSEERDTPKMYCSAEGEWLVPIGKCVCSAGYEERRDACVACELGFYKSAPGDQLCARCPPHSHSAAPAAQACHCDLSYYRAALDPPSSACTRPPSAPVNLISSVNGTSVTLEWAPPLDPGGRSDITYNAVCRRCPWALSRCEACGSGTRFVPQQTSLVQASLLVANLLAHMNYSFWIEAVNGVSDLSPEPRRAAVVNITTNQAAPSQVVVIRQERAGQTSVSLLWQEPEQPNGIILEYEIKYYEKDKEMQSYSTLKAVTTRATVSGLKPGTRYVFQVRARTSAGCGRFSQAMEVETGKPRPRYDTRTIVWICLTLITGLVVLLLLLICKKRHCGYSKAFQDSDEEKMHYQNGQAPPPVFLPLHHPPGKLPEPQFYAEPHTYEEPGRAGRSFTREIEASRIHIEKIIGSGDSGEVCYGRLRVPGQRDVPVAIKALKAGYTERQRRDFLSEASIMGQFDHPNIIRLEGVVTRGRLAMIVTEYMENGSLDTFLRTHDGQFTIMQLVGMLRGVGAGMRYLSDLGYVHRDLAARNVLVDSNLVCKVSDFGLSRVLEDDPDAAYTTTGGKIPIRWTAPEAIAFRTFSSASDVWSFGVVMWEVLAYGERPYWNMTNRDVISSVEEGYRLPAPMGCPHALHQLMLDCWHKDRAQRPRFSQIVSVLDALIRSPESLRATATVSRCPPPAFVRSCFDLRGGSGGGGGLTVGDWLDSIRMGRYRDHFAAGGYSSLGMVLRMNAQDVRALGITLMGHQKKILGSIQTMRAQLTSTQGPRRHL

ERBB3 = target: T4, ERBB3 (Homo sapiens, UniProt P21860); conditions: ERBB3
T4 construct: purchased Eurofins DiscoverX KINOMEscan (scanTK)

ERBB4 = target: T5, ERBB4 (Homo sapiens, UniProt Q15303)
T5 construct: purchased Eurofins DiscoverX KINOMEscan (scanTK)

FGFR3 = target: T6, FGFR3 (Homo sapiens, UniProt P22607)
T6 construct: purchased Eurofins DiscoverX KINOMEscan (scanTK)

FGFR3(G697C) = target: T7, FGFR3(G697C) (Homo sapiens, UniProt P22607, G697C)
T7 construct: purchased Eurofins DiscoverX KINOMEscan (scanTK)

FGFR4 = target: T8, FGFR4 (Homo sapiens, UniProt P22455)
T8 construct: purchased Eurofins DiscoverX KINOMEscan (scanTK)

FLT1 = target: T9, FLT1 (Homo sapiens, UniProt P17948)
T9 construct: purchased Eurofins DiscoverX KINOMEscan (scanTK)

FLT3(K663Q) = target: T10, FLT3(K663Q) (Homo sapiens, UniProt P36888, K663Q)
T10 construct: purchased Eurofins DiscoverX KINOMEscan (scanTK)
T10 sequence (P36888 27-993 K663Q): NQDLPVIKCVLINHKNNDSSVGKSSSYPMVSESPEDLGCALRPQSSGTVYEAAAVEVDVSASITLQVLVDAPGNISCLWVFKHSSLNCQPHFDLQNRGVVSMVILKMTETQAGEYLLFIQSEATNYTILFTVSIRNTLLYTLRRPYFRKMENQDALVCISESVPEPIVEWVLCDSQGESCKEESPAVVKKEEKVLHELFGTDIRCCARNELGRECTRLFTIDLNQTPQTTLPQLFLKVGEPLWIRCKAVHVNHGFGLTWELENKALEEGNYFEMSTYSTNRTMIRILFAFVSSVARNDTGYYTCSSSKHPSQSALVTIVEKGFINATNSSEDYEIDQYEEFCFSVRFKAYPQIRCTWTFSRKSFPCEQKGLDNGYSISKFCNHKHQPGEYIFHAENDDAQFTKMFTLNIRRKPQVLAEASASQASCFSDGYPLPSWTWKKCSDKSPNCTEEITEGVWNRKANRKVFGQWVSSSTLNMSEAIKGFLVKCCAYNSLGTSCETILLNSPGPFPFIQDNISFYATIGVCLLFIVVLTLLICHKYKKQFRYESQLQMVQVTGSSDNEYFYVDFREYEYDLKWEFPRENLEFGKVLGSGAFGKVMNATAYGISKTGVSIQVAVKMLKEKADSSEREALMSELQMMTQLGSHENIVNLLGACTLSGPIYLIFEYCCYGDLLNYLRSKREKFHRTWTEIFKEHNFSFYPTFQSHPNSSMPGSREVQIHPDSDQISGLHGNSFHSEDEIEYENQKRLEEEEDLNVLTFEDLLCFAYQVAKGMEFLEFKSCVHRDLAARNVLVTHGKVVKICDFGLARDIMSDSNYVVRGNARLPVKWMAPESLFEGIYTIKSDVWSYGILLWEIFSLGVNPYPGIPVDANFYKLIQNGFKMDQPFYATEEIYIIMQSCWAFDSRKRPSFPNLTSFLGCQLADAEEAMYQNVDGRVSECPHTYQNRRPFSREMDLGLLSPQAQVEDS

[3] = target: T11, JAK1(JH2domain-pseudokinase) (Homo sapiens, UniProt P23458)
T11 construct: JAK1(JH2domain-pseudokinase); purchased Eurofins DiscoverX KINOMEscan (scanTK)
T11 sequence (P23458 583-855 limits assumed): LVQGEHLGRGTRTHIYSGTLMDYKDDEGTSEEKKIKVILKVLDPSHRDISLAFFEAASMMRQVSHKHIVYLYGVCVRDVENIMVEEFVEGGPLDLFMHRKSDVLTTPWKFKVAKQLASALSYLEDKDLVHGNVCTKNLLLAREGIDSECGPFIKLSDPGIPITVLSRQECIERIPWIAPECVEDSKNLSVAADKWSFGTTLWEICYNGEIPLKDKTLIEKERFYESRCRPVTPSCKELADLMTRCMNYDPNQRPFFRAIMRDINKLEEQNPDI

T5 sequence (Q15303 26-1308): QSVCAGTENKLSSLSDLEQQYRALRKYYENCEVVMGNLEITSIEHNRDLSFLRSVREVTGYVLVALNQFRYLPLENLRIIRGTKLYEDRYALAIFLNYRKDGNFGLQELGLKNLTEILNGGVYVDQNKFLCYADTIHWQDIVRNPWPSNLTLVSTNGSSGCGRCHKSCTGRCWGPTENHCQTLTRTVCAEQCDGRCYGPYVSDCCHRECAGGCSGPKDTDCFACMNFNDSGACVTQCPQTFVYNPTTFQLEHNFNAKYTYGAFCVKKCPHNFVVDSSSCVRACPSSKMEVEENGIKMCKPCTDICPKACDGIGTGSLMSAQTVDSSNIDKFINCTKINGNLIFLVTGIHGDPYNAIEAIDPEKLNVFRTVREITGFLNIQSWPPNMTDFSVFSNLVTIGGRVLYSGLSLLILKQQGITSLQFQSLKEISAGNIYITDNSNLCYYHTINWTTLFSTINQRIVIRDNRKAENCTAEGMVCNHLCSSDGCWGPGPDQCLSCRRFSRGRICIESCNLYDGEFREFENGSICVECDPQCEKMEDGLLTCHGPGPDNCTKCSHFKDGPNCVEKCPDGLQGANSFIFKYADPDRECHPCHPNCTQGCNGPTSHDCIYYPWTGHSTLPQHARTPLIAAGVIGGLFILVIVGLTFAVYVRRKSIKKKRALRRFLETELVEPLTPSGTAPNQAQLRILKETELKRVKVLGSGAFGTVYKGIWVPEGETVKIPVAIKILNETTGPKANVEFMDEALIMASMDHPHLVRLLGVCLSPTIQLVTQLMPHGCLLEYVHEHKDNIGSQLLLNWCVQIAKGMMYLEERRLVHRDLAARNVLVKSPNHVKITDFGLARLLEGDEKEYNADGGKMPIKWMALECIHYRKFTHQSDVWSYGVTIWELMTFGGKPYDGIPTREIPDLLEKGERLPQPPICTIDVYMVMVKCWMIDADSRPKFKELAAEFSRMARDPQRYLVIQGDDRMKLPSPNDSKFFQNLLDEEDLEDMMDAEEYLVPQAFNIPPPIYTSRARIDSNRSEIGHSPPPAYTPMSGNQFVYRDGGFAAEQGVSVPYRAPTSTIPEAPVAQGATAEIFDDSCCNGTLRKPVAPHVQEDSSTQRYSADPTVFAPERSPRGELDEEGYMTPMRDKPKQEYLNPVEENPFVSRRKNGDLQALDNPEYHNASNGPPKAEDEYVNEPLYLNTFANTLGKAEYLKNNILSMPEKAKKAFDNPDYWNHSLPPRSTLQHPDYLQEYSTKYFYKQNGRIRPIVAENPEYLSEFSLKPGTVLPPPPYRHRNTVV
T8 sequence (P22455 22-802): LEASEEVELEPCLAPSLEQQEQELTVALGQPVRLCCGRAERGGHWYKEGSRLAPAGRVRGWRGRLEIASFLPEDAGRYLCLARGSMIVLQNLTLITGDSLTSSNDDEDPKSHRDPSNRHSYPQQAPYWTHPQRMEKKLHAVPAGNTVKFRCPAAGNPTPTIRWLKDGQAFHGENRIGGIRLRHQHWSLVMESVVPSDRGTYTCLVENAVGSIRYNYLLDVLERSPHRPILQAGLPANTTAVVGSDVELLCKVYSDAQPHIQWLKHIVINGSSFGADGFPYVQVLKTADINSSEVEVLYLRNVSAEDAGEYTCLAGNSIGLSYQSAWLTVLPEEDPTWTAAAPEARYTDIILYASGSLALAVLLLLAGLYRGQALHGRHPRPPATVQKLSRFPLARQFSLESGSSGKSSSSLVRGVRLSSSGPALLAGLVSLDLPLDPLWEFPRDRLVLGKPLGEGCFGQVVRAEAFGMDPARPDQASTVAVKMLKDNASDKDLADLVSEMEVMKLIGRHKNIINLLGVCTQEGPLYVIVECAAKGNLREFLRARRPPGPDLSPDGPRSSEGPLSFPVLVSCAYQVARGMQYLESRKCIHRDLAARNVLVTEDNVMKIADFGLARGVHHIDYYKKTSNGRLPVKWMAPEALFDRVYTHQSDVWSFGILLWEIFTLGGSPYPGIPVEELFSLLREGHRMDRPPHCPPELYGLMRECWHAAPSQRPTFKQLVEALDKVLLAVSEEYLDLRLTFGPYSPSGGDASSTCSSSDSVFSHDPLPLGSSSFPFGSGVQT
T7 sequence (P22607 23-806 G697C): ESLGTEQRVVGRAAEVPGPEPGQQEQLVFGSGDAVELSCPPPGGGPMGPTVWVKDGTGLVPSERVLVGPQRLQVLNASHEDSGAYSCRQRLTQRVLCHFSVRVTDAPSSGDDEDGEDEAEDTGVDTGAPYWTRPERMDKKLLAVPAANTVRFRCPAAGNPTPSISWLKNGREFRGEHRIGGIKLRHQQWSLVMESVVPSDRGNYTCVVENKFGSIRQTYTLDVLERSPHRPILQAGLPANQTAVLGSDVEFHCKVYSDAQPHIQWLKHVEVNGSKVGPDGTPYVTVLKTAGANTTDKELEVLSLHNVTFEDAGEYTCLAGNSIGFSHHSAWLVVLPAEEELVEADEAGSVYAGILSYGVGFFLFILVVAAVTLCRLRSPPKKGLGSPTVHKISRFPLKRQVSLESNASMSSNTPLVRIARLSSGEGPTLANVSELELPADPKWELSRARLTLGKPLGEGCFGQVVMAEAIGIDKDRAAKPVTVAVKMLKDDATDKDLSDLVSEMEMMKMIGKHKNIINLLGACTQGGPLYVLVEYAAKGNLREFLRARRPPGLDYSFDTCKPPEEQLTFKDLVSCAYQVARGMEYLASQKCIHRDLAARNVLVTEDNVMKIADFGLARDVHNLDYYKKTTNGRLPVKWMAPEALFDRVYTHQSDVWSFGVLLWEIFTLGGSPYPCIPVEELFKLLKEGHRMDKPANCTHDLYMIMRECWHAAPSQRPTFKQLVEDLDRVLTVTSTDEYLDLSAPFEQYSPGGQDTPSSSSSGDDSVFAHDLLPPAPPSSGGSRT
T9 sequence (P17948 27-1338): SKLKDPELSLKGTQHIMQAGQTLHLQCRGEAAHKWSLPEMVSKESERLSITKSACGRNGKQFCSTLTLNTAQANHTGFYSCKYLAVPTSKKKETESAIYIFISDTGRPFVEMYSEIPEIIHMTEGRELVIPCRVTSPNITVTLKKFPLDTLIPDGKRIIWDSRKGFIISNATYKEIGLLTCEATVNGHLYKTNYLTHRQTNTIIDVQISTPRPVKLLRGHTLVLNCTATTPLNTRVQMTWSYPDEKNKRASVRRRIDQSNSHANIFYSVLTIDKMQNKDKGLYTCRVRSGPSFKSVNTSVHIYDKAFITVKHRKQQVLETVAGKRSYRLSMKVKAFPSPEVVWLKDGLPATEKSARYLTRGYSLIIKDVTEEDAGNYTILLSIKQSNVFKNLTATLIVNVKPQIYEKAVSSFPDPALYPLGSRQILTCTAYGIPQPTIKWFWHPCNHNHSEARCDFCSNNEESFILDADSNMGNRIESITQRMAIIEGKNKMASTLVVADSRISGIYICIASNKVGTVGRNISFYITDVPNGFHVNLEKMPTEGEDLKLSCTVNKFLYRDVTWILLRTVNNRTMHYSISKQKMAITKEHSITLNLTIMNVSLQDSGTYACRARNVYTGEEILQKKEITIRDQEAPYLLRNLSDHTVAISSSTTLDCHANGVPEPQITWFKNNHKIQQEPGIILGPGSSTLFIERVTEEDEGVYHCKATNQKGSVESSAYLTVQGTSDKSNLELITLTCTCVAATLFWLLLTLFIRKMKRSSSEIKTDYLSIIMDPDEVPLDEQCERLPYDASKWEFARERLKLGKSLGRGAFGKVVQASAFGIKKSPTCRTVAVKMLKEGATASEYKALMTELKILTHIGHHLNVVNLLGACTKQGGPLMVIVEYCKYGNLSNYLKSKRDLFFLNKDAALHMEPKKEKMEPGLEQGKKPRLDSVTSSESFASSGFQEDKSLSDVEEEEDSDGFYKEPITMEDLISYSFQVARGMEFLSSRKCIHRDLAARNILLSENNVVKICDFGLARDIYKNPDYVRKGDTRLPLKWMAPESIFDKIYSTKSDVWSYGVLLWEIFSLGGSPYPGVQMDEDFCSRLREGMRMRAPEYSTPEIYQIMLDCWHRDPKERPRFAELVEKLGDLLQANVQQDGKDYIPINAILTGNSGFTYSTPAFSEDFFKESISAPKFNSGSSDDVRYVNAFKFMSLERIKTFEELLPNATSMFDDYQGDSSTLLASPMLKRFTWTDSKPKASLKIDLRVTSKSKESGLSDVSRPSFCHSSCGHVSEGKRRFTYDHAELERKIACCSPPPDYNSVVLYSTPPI
T6 sequence (P22607 23-806): as the sequence (P22607 23-806 G697C) above, with C675G counted along it
T2 sequence (P00533 with tags, fused parts or gaps DEL747-752/P753S limits assumed): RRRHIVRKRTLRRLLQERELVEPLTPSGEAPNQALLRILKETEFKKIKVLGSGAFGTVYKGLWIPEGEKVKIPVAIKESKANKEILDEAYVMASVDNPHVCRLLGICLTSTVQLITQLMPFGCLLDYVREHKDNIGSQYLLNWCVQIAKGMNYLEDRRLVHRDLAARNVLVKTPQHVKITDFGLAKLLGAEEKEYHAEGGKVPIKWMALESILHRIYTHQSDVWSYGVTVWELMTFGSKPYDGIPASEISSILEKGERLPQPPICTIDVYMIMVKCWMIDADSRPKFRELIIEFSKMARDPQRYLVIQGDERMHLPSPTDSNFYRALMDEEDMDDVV

Row | SMILES | difference in %Control from compound Ib at 1 µM ([1]; @1000nM) | remaining binding at 1 µM ([1]; @1000nM, read-out: %Control) | remaining binding at 1 µM ([1]; read-out: %Control @1000nM) | difference in %Control versus compound Ib at 1 µM ([2]; @1000nM) | remaining binding at 1 µM ([2]; @1000nM, read-out: %Control) | remaining binding at 1 µM ([2]; read-out: %Control @1000nM) | difference in %Control versus compound Ib at 1 µM (EPHA8; @1000nM) | remaining binding at 1 µM (EPHA8; @1000nM, read-out: %Control) | remaining binding at 1 µM (EPHA8; read-out: %Control @1000nM) | % of control difference from compound Ib at 1 µM (ERBB3; @1000nM) | remaining binding at 1 µM (ERBB3; @1000nM, read-out: %Control) | remaining binding at 1 µM (ERBB3; read-out: %Control @1000nM) | difference in %Control versus compound Ib at 1 µM (ERBB4; @1000nM) | remaining binding at 1 µM (ERBB4; @1000nM, read-out: %Control) | remaining binding at 1 µM (ERBB4; read-out: %Control @1000nM) | difference in %Control versus compound Ib at 1 µM (FGFR3; @1000nM) | remaining binding at 1 µM (FGFR3; @1000nM, read-out: %Control) | remaining binding at 1 µM (FGFR3; read-out: %Control @1000nM) | difference in %Control versus compound Ib at 1 µM (FGFR3(G697C); @1000nM) | remaining binding at 1 µM (FGFR3(G697C); @1000nM, read-out: %Control) | other results
1 | CCOC(=O)c1cnc(S(C)(=O)=O)nc1N1CCC[C@@H](n2nc(-c3ccc(Oc4ccccc4)cc3)c3c(N)ncnc32)C1 [Compound 8c, Ethyl (R)-4-(3-(4-Amino-3-(4-phenoxyphenyl)-1H-pyrazolo[3,4-d]pyrimidin-1-yl)piperidin-1-yl)-2-(methylsulfonyl)pyrimidine-5-carboxylate] | 4% | 81% | 81% | 94.5% | 100% | 100% | 19% | 88% | 88% | 39% | 39% | 39% | 5.15% | 5.2% | 5.2% | 48% | 96% | 96% | 50% | 90% | remaining binding at 1 µM (FGFR3(G697C); read-out: %Control @1000nM): 90%; difference in %Control from compound Ib at 1 µM (FGFR4; @1000nM): -5%; remaining binding at 1 µM (FGFR4; @1000nM, read-out: %Control): 91%; remaining binding at 1 µM (FGFR4; read-out: %Control @1000nM): 91%; difference in %Control from compound Ib at 1 µM (FLT1; @1000nM): 28%; remaining binding at 1 µM (FLT1; @1000nM, read-out: %Control): 100%; remaining binding at 1 µM (FLT1; read-out: %Control @1000nM): 100%; difference in %Control from compound Ib at 1 µM (FLT3(K663Q); @1000nM): 56%; remaining binding at 1 µM (FLT3(K663Q); @1000nM, read-out: %Control): 100%; remaining binding at 1 µM (FLT3(K663Q); read-out: %Control @1000nM): 100%; %Control difference versus compound Ib at 1 µM ([3]; @1000nM): 4%; remaining binding at 1 µM ([3]; @1000nM, read-out: %Control): 99%; remaining binding at 1 µM ([3]; read-out: %Control @1000nM): 99%
2 | CNC(=O)c1cnc(S(C)(=O)=O)nc1N1CCCC(n2nc(-c3ccc(Oc4ccccc4)cc3)c3c(N)ncnc32)C1 (stereo not drawn) [Compound 8d, 4-(3-(4-Amino-3-(4-phenoxyphenyl)-1H-pyrazolo[3,4-d]pyrimidin-1-yl)piperidin-1-yl)-N-methyl-2-(methylsulfonyl)pyrimidine-5-carboxamide] | 3% | 80% | 80% | 36.5% | 42% | 42% | 24% | 93% | 93% | 8.9% | 8.9% | 8.9% | 0.05% | 0.1% | 0.1% | 51% | 99% | 99% | 47% | 87% | remaining binding at 1 µM (FGFR3(G697C); read-out: %Control @1000nM): 87%; difference in %Control from compound Ib at 1 µM (FGFR4; @1000nM): 4%; remaining binding at 1 µM (FGFR4; @1000nM, read-out: %Control): 100%; remaining binding at 1 µM (FGFR4; read-out: %Control @1000nM): 100%; difference in %Control from compound Ib at 1 µM (FLT1; @1000nM): 28%; remaining binding at 1 µM (FLT1; @1000nM, read-out: %Control): 100%; remaining binding at 1 µM (FLT1; read-out: %Control @1000nM): 100%; difference in %Control from compound Ib at 1 µM (FLT3(K663Q); @1000nM): 36%; remaining binding at 1 µM (FLT3(K663Q); @1000nM, read-out: %Control): 80%; remaining binding at 1 µM (FLT3(K663Q); read-out: %Control @1000nM): 80%; %Control difference versus compound Ib at 1 µM ([3]; @1000nM): 5%; remaining binding at 1 µM ([3]; @1000nM, read-out: %Control): 100%; remaining binding at 1 µM ([3]; read-out: %Control @1000nM): 100%
